Laboratory results: patent publication US7342092B2, “Cancer antigen peptide formulations” (International Institute of Cancer Immunology, Inc., priority 2002, dated 2008)
Where no end group is shown, it is not given here.

Legend:
[1] = system: CTLs reactive to the wild type WT1 peptide-presenting HLA-A*2402 molecule; assay: HLA tetramer method, CTLs reactive to wild type WT1 peptide-presenting HLA-A*2402, Example 3; format: in vivo, human; conditions: two days after the administration; 1.1% three days before the administration
Description: Subsequently, the number of cytotoxic T cells (CTLs) reactive to the wild type WT1 peptide-presenting HLA-A*2402 molecule in the same patient was determined by an HLA tetramer method. The HLA-A*2402 tetramer was prepared using the wild type WT1 peptide according to the method described in Int. J. Cancer 100, 565-570 (2002). On a flow cytometer, FACS, the cells were stained with the two colors of PE-labeled HLA-A*2402 tetramer and FITC-labeled CD8 antibody, and the double-positive cells were assigned to CTLs recognizing the wild type WT1 peptide, i.e., CTLs reactive to WT1-positive cancer cells. CTL frequency three days before the administration of the peptide was 1.1%, whereas the frequency was increased to 8.8% two days after the administration.

[2] = system: cancer patient two suffered from acute myeloblastic leukemia (AML-M1) transformed from Myelodysplastic Syndromes (MDS); assay: Leukocyte number and bone marrow leukemic blasts in the leukemia patient, Example 3; format: in vivo, human
Description: The present example illustrates the case of the cancer patient two suffered from acute myeloblastic leukemia (AML-M1) transformed from Myelodysplastic Syndromes (MDS), who was administered with the WT1 peptide vaccine. The WT1 peptide used in this example was altered type WT1 peptide: Cys Tyr Thr Trp Asn Gln Met Asn Leu (SEQ ID NO: 3) synthesized by MPS Inc. (U.S.) with GMP grade. In a similar manner to Example 1, the peptide was mixed with MONTANIDE ISA (registered trademark) 51 to provide a water-in-oil emulsion, and the emulsion was injected intradermally at the upper arm of the patient. Leukemic blasts occupied 50% of the bone marrow two days before the administration, while the total number of leukocytes was 1500/μl on the day before the administration. Two days after the administration, the total number of leukocytes was decreased to 700/μl, and the leukemic blasts of the bone marrow reduced to 27%. When a hemopoietic factor, G-CSF, was administered to the patient in the light of the decreased total number of leukocytes, the total number recovered to 2150/μl, and the leukemic blasts of the bone marrow was 11% seven days after the administration.

[3] = system: lung cancer patient two with metastasis at stage IV; assay: Change in blood tumor marker levels in the lung cancer patient two, Example 2; format: in vivo, human
Description: The present example illustrates the case of the lung cancer patient two with metastasis at stage IV, who was administered with the WT1 peptide vaccine. In a similar manner to Example 1, a solution of wild type WT1 peptide (SEQ ID NO: 2) was mixed with Montanide ISA (registered trademark) 51 to provide a water-in-oil emulsion each just before the administration wherein the emulsion was injected intradermally at the upper arm of the patient totally six times, i.d. on day 0, 14, 28, 42, 56, and 71 wherein day 0 represents the day when the first administration was conducted.
The levels of tumor markers, CEA and SLX, were determined in a similar manner to Example 1, and the level of CYFRA (cytokeratin 19 fragments) was determined using Elecsys CYFRA produced by Roche.

[4] = system: peripheral blood mononuclear cells (PBMC); assay: ELISPOT of IFN-γ producing T cells in PBMC, Example 1; format: cell-based, human; conditions: PBMC receiving the peptide in comparison with PBMC not receiving the peptide

Row | Sequence | CTL frequency (HLA-A*2402 tetramer and CD8 double-positive cells) [1] | leukemic blasts of the bone marrow ([2]; seven days after the administration, G-CSF also given) | leukemic blasts of the bone marrow ([2]; two days after the administration, 50% two days before the administration) | conditions of leukemia ([2]; water-in-oil emulsion, overall conclusion of Example 3) | level of SLX in blood ([3]; on and after the 2nd administration, before administration 50 U/ml, upper limit of normal 38 U/ml, FIG. 2) | level of CEA in blood ([3]; on and after the 2nd administration, before administration higher than upper limit of normal 5 ng/ml, FIG. 2) | level of CYFRA in blood ([3]; on and after the 3rd administration, below the upper limit of normal level, FIG. 2) | development of the tumor ([3]; water-in-oil emulsion, overall conclusion of Example 2) | T cells producing IFN-γ in response to specifically the peptide (ELISPOT) [4]
1 | CYTWNQMNL [altered type WT1 peptide] | 8.8% | 11% | 27% | improved the conditions of leukemia with decreased ratio of the leukemic blasts in the bone marrow |  |  |  |  | 
2 | CMTWNQMNL [wild type WT1 peptide] |  |  |  |  | decreased to reach the normal level | decreased | < 2 ng/mL | suppressed the development of the tumor | found to be more
